Like-named read-outs stand apart in the source and are kept apart here.
Key:
[1] = test system: Zika virus Malaysia P 6-740; test: Virus yield reduction (VYR) assay; format: cell-based
Experimental: (§1) The compounds were administered at a range of concentrations up to 100 μg/ml. Compounds were prepared in MEM just prior to testing. Inhibition of virus replication was determined by microscopic examination of the infected cells for cytopathic effect, increase of neutral red (NR) dye uptake (colorimetric determination), and virus yield reduction. Uninfected cells treated with a compound were assayed as above for cytotoxicity control. The EC50, EC90 and SI (selectivity index) values were determined in Vero76, Huh7 and RD cells as analyzed by the neutral red uptake dye assay and virus yield reduction assays. The results are presented from 3 or more independent experiments (standard deviations not shown. Three Zika virus strains were used in this in vitro study, Malaysia strain P 6-740, Uganda strain MR-766 and Puerto Rico strain PRVABC-59. Cells were maintained under standard conditions.

[2] = test system: Zika virus Puerto Rico PRVABC59; test: Virus yield reduction (VYR) assay; format: cell-based; details: Puerto Rico PRVABC59
Experimental: as §1

[3] = test system: Zika virus Uganda MR 766; test: Virus yield reduction (VYR) assay; format: cell-based
Experimental: as §1

[4] = test system: Zika virus (Malaysia, strain P 6-740); test: Murine Zika virus model, treatment begun 4 h before infection (Example 3); details: for relative virus levels vs placebo: FIG. 4; for weight change in grams between days 7 and 13 post-infection: FIG. 3B
Experimental: The agents used in this experiment were compound A (the compound of formula I, where A is NH2 and B is H as the HCL salt) and ribavirin. Compound A was administered IM at 150 mg/kg/day and 300 mg/kg/day, each in a volume of 0.05 ml saline and ribavirin was administered IP at 75 mg/kg/day and 50 mg/kg/day, each in a volume of 0.1 ml saline. IM or IP administration of the daily dose was accomplished in two IM/IP injections of one-half the daily dose each. Mice were administered the first dose of Compound A and ribavirin 4 hours prior to infection with Zika virus and continued the treatment for 8 days post-infection.
In this experiment, Zika virus (Malaysia, strain P 6-740) was administered at a challenge dose of 100 CCID50 (10^3 pfu) per mouse via subcutaneous injection in a 0.1 ml volume.
Mice were monitored for survival 28 days post-virus challenge. Weight change for individual mice were taken on day 0 and every other day through the end of the experiments. Mice were observed daily for signs of disease including conjunctivitis, hunching, and limb weakness or paralysis.
For Zika virus infection and antiviral treatment studies, mice were randomly assigned to groups of 10 animals each. A 10^-3 dilution (10^4.0 pfu/mL) of the virus was prepared in MEM. Mice were challenged s.c. with 0.1 mL of the diluted virus (˜10^3.0 pfu/animal). All compound dosages were based on an average mouse weight of 22 g. Compounds were prepared in sterile saline less than 18 hours prior to initial administration in mice and stored at 4° C. for the duration of the study. Compound A was administered i.m., twice daily (bid) at 300 or 150 mg/kg/d. Ribavirin was given i.p., bid at 75 or 50 mg/kg/d. Treatments began 4 hours prior to virus challenge and continued for 8 days. The identity of the treatment groups was blinded to the technician administering treatments. Mortality was observed twice daily for 28 days, and the weight of each mouse was recorded on day 0 and then every other day from 1-19 days post-virus infection (dpi). Mice were humanely euthanized if they could no longer right themselves or were unresponsive to stimuli.
Fifty to 100 mg of freshly isolated tissue was ground with a pestle in 1 mL TRI Reagent (Sigma-Aldrich, St. Louis, MO) and total RNA was extracted. For the extraction of viral RNA from liquid samples, QlAamp Viral RNA Mini Spin kit was used according to the manufactures instructions (Qiagen, Valencia, CA). Extracted RNA was eluted with nuclease-free water and was amplified by a quantitative real-time RT-PCR using the Logix Smart Zika Test developed by Co-Diagnostics, Inc. (Bountiful, UT). Five μL of the master mix containing a set of primers and Rapid Probe, labeled with a FAM fluorophore and DABCYL quencher, was mixed with 2-5 μL of RNA and an appropriate volume of water for a final reaction volume of 10 μl. RNA was first reverse transcribed for 10 minutes at 55° C., followed by strand separation by heating to 95° C. for 20 seconds. The PCR reaction consisted of 40 cycles at 95° C. for 1 second and 55° C. for 20 seconds. A standard curve was generated with a synthetic RNA spanning the region of amplification and it was used to calculate the number of genome equivalents of the unknown samples.

[5] = test system: Zika virus KF993678 (Thai isolate); test: Non-human primate Zika virus model, heterologous challenge day 70 (Example 6); format: in vivo, Indian rhesus macaques; details: Groups 1 and 2, no additional dosing
[6] = test system: Zika virus PRVABC-59
[7] = test system: Zika virus PRVABC-59; details: for plasma viremia: n=4; for samples with Zika virus below the limit of quantification: FIG. 15D

Cl.Nc1ncnc2c([C@@H]3N[C@H](CO)[C@@H](O)[C@H]3O)c[nH]c12 [Compound A]
VYR assay EC90 ([1]; Huh-7 cells): 4.9 ± 0.9 µg/mL
VYR assay EC90 ([1]; Vero76 cells): 13.8 ± 3.7 µg/mL
VYR assay EC90 ([2]; Huh-7 cells): 6.7 ± 1.2 µg/mL
VYR assay EC90 ([2]; RD cells): 10.0 ± 2.2 µg/mL
VYR assay EC90 ([2]; Vero76 cells, virus harvested 5 dpi, 1 log10 CCID50 reduction): 18.2 ± 2.7 µg/mL
VYR assay EC90 ([3]; Huh-7 cells): 6.4 µg/mL
VYR assay EC90 ([3]; RD cells): 5.4 ± 1.1 µg/mL
VYR assay EC90 ([3]; Vero76 cells): 8.7 µg/mL
relative virus levels vs placebo ([4]; 150 mg/kg/day IM (group 3)): decreased viral levels in a statistically significant manner
survival ([4]; 150 mg/kg/day IM bid x 8 days, begun -4 h (group 3)): all died by day 27 post-infection
mortality curve vs placebo ([4]; 150 mg/kg/day IM bid x 8 days, begun -4 h (group 3), p<0.001): delayed the mortality curve
percent weight change ([4]; 150 mg/kg/day IM, Zika infected (group 3), FIG. 3A): modest weight reduction starting around day 15 post-infection
weight change in grams between days 7 and 13 post-infection ([4]; 150 mg/kg/day IM): weight change similar to that seen in normal controls
morbidity in surviving mice 28 days post-infection ([4]; 300 mg/kg/day IM (group 1)): no morbidity was observed
weight change in grams between days 7 and 13 post-infection ([4]; 300 mg/kg/day IM (group 1)): weight change similar to that seen in normal controls
relative virus levels vs placebo ([4]; 300 mg/kg/day IM (group 1)): decreased viral levels in a statistically significant manner
mice survived to day 28 post-infection ([4]; 300 mg/kg/day IM bid x 8 days, begun -4 h (group 1), p<0.0001 vs placebo): 7/8
morbidity or mortality at day 28 in sham-infected mice ([4]; 300 mg/kg/day IM bid x 8 days, sham infection (group 2)): No morbidity or mortality
percent weight change ([4]; 300 mg/kg/day IM, Zika infected (group 1), FIG. 3A): weight change similar to that seen in normal controls
percent weight change in sham-infected mice ([4]; 300 mg/kg/day IM, sham infection (group 2), FIG. 3A): weight change similar to that seen in normal controls
viral RNA in serum after heterologous challenge ([5]; FIG. 14A): minimal viral RNA
viral RNA in CSF after heterologous challenge ([5]; FIG. 14B): minimal viral RNA
plasma viremia through day 28 post-infection ([6]; Group 1: 200 mg/kg split dose day 0 (+90 min), 25 mg/kg b.i.d. days 1-9, IM, n=5): did not develop detectable viremia
Zika virus RNA in CSF, saliva and urine ([6]; Group 1, FIG. 13A): only sporadically detectable Zika virus RNA
magnitude of viremia in viremic animals ([6]; Group 2: 200 mg/kg split dose day 0 only, IM): significantly reduced as compared to control
animals with detectable plasma viremia ([6]; Group 2: 200 mg/kg split dose day 0 only, IM, n=5): only two animals from this group showing viremia
Zika virus RNA in CSF, saliva and urine ([6]; Group 2, FIG. 13B): only sporadically detectable Zika virus RNA
tolerability ([6]; IM, Groups 1 and 2): well-tolerated
plasma viremia ([7]; Group 1: 200 mg/kg day 0, 25 mg/kg b.i.d. days 1-9, IM): did not develop detectable viremia
plasma viremia ([7]; Group 2: 150 mg/kg day 0, 19 mg/kg b.i.d. days 1-9, IM): only one animal from this group showing slight viremia
plasma viremia ([7]; Group 3: 100 mg/kg day 0, 13 mg/kg b.i.d. days 1-9, IM): only two animals from this group showing slight viremia
plasma viremia ([7]; Group 4: 50 mg/kg day 0, 6 mg/kg b.i.d. days 1-9, IM): viremic between days 4 to 7 post-infection
tolerability ([7]; IM, Groups 1 to 4): well-tolerated
samples with Zika virus below the limit of quantification ([7]; total dose 492 mg/kg (Group 2)): 3 out of 4
samples with Zika virus below the limit of quantification ([7]; total dose 650 mg/kg (group 1)): 4 out of 4
maximum Zika virus titers vs control ([7]; total doses greater than 334 mg/kg (Groups 1 to 3), p <0.0001): decreased dramatically

Reference: patent US11975003B2, “Methods and compositions for treatment of Zika virus infection” (priority 2016, dated 2024)
